Values of other authors, collected in patent EP2698169A1, “A contrast agent-binding polypeptide and use thereof” (Universität Duisburg-Essen, priority 2012, dated 2014).

Conditions: literature [26]; conventional small molecular contrast agents

SMILES: CNC[C@H](O)[C@@H](O)[C@H](O)[C@H](O)CO.CNC[C@H](O)[C@@H](O)[C@H](O)[C@H](O)CO.O=C([O-])CN(CCN(CC(=O)[O-])CC(=O)O)CCN(CC(=O)[O-])CC(=O)O.[Gd+3] [DTPA-Gd^3+, gadopentetic acid]
- Relaxivities: below 10 s^-1mM^-1

SMILES: O=C([O-])CN1CCN(CC(=O)[O-])CCN(CC(=O)O)CCN(CC(=O)[O-])CC1.[Gd+3] [DOTA-Gd^3+]
- Relaxivities: below 10 s^-1mM^-1
